Data on two molecules can be found in patent EP1030842B1, “METALLOPROTEINASE INHIBITORS” (BRITISH BIOTECH PHARMACEUTICALS LIMITED, priority 1997, dated 1999).

Each structure is given as a SMILES string. Like-named read-outs stand apart in the source and are kept apart here.

Series [1] can be described thus: Blood concentration in minipump-dosed rats of the tendinitis study (fluorometric assay). The series is classed as in vivo. Conditions: rats of the tendinitis tests; blood samples days 3, 10 and 16 or 17 post implantation. The method, then:
Blood samples were obtained on days 3 and 10 post minipump implantation from rats lightly anaesthetised with halothane via the tail vein. Blood samples (0.5ml) were placed into tubes containing 3.0ml methanol to extract free and bound compound. Blood concentration of Compound A or Compound B was determined by a fluorometric assay using the coumarin peptide substrate Mca-Pro-Leu-Gly-Leu-Dpa-Ala-Arg-NH2 (Mca = (7-methoxycoumarin-4-yl)acetyl, Dpa = N-3-(2,4-dinitrophenyl)-L-2,3-diaminopropyl) (see Knight et. al., FEBS Lett. 1992, 296, 263-266). On either day 16 or 17 post implantation, studies were ended, rats were terminally anaesthetised with halothane and blood samples (0.5ml) were taken by cardiac puncture and the blood concentration of Compound A or Compound B determined.

Series [2] in a line: Propensity to induce observable signs of tendinitis in rats (observation based score). Particulars: 5µl/hr; for signs of tendinitis: observed daily for 16 days, mean scores >2 significant. The series is classed as in vivo, Male Lewis rats. The protocol:
The compound of the invention was tested for its propensity to induce observable signs of tendinitis in rats. The tendinitic effect in rats of the compound of the invention ("Compound A") was compared with that of a close structural isomer, namely N^1-[2,2-dimethyl-1S-(pyridin-3-ylcarbamoyl)-propyl]-N^4-hydroxy-2R-isobutyl-3S-hydroxy-succinamide ("Compound B").
Male Lewis rats were used. In each study up to 30 rats were weighed and randomised on bodyweight for group allocation, n=6/group. In each study, a corresponding vehicle group was run to compare with each treatment group.
Compound A was formulated as its mesylate salt, whilst Compound B was formulated as the free base. For Compound A @ 15mg/ml the vehicle was 50% DMSO, 37% 0.1M methane sulphonic acid, 13% sterile water; and @ 30mg/ml the vehicle was 50% DMSO, 37% 0.2M methane sulphonic acid, 13% sterile water. For Compound B @ 15mg/ml the vehicle was 50% DMSO/water.
Alzet (trade mark) osmotic minipumps (2ML2, 14 day, 5µl/hr from Alza Corp., Palo Alto CA 94303), were weighed empty and full to be sure of correct fill volume. Prior to implantation, filled pumps were placed in an incubator at 37°C. All rats were anaesthetized with halothane. Once anaesthetised, the scruff was shaved and disinfected. A longitudinal skin incision, approx 2 cm long, was made on the prepared site and a subcutaneous pocket was made under the skin using a pair of haemostatic forceps. Minipumps were inserted with the exit of the pump facing away from the wound. The incision wound was closed with sutures, and the area around the wound was re-disinfected. Immediately post-operatively, all the rats received analgesic, (Temgesic -trade mark - Reckitt and Colman) 0.1mg/kg s.c. in the flank. On recovery from anaesthesia, the animals were returned to cages containing dry bedding to ensure the wound remained dust free prior to healing. On the day followng surgery, all rats were placed back on standard bedding and housed in groups of 3 to enable more accurate observation of signs of tendinitis.
Following the implantation of mini-pumps, rats were weighed and monitored for the possible onset of tendinitis. Onset and severity of tendinitis was measured by an observation based scoring system (see below). The rats were observed daily for 16 days. Mean scores >2 were considered significant.

Series [3] deals with B16 mouse melanoma cells. The series can be described thus: B16 mouse melanoma model. The series is classed as in vivo, C57/BL6J mice. An excerpt:
In this model C57/BL6J mice are inoculated subcutaneously with 10^5 B16 mouse melanoma cells. The tumours are allowed to grow over 18 days and the tumour weight calculated by calliper measurements and the following formula: weight (mg)- length (mm) x width (mm) ö 4. A group of mice (n=19) received the compound, administered via a mini-osmotic pump implanted subcutaneously on the opposite flank to the B16 tumour. The pump was implanted the day before tumour inoculation and the compound was delivered at a dose of 360 µg/day. A control group (n=17) received the appropriate volume of vehicle from identical implanted pumps.

For series [4], the target named is interstitial collagenase (Homo sapiens, UniProt P03956). Briefly: biochemical.
Chain of interstitial collagenase (P03956 100-469, species assumed): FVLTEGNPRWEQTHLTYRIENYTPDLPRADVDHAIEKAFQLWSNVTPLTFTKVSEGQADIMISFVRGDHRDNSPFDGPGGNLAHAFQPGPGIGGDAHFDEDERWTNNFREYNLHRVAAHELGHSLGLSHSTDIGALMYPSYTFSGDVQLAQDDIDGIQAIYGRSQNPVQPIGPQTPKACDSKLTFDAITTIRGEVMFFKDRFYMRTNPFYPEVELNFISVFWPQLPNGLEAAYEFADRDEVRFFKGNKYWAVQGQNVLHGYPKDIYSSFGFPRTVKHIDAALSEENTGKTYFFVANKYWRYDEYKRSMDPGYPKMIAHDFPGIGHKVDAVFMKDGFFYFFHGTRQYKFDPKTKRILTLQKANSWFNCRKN
Procedure: The potency of the compound of the invention as inhibitors of interstitial collagenase was determined by the procedure of Cawston and Barrett, (Anal. Biochem., 99, 340-345, 1979), whereby a 1mM solution of the compound being tested, or a dilution thereof, was incubated at 37° for 16 hours with collagen and collagenase (buffered with 25mM Hepes, pH 7.5 containing 5mM CaCl2, 0.05% Brij 35 and 0.02% NaN3). The collagen was acetylated ^14C collagen prepared by the method of Cawston and Murphy, (Methods in Enzymology, 80, 711, 1981), hereby incorporated by reference. The samples were centrifuged to sediment undigested collagen, and an aliquot of the radioactive supernatant removed for assay on a scintillation counter as a measure of hydrolysis.
A short description of series [5]: Delayed type hypersensitivity (DTH) model of MS. Conditions: 30mg/kg orally twice daily, mean ± standard error of the mean. In kind it is in vivo, Male Lewis rats.
In series [6] the target is T1, 72 kDa gelatinase (Homo sapiens, UniProt P08253).
T1 construct: endogenous in cells; host or cells: RPMI-7951 cells
T1 sequence (P08253 110-660): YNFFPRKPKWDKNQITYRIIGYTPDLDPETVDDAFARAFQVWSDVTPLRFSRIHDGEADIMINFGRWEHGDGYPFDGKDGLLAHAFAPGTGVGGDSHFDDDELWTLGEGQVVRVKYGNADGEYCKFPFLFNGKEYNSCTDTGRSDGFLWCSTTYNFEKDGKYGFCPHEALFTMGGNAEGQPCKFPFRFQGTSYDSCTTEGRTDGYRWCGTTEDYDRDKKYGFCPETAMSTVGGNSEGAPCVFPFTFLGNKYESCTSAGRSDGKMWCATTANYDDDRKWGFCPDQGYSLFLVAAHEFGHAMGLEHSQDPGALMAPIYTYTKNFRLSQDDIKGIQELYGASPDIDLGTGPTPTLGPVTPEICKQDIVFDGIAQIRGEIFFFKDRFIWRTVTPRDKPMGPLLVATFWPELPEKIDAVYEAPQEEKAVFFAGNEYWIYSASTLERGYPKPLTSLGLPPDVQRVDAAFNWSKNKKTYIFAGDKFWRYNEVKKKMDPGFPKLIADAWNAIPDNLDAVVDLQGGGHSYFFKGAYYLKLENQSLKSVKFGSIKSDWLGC
The series can be described thus: 72 kDa gelatinase inhibition (14C gelatin, based on Sellers et al). In kind it is biochemical. Conditions: 16 hours at 37°C. The method, then: 72 kDa gelatinase, derived from RPMI-7951 cells was purified by gelatin-agarose chromatography. The enzyme was activated by incubation with aminophenyl mercuric acetate and approximately 0.05 units was incubated with 50µg [^14C]-radiolabelled gelatin in an appropriate buffer for 16 hours at 37'C. At the end of the incubation 50µg bovine serum albumin, together with trichloroacetic acid (final concentration 16%) were added to stop the reaction and to precipitate any undegraded substrate. The reaction tubes were placed on ice for 15 minutes before centrifugation at 10,000g for 15 minutes to sediment the precipitated substrate. A 200µl aliquot of the reaction supernatant was removed and the radioactivity determined by liquid scintillation counting. The effect of the inhibitors was determined by reference to a dose response curve. The IC50 (the concentration of inhibitor required to cause a 50% decrease in enzyme activity) was obtained by fitting a curve to the data and computing the concentration of inhibitor required to achieve 50% inhibition of the enzyme. For each IC50 determination, the effect on gelatinase activity of at least 8 concentrations of the inhibitor were examined. The inhibitors were dissolved and diluted in DMSO.

A short description of series [7]: Blood concentration over time after gavage, by collagenase inhibitory activity of blood extracts. In kind it is in vivo. Particulars: male rats. The protocol:
The concentration over time of compound of the invention in the blood of laboratory animals following administration of the test compounds was measured. The compound was administered by gavage to 6 male rats (300g) per treatment group. Blood samples were removed by tail venepuncture at 0.5, 1.0, 2.0, 6.0 and 24 hours post administration. 0.4 ml of blood was placed into 4.5ml tubes containing 0.1ml acid citrate dextrose (ACD) as anti-coagulant. For extraction, 3ml methanol was added and the precipitated blood pelletted by centrifugation (30 min at 3000 rpm). A 2ml aliquot of supernatant was removed and concentrated by lyophilisation. The extract was redissolved in 200µl DMSO and a 10µl aliquot assayed for collagenase inhibitory activity. The inhibitory activity in the extracts was determined using the collagenase assay described in Biological Example A above, and the concentration of inhibitor (that is drug plus any active metabolites) obtained by comparison with standard curves. Results are expressed as peak concentration in ng/ml, as area under the curve (AUC) in ng/ml x hours, over 0.5-24 hours, and as AUC in number of IC50's x hours.

The nature of series [8]: Rat experimental autoimmune neuritis (EAN) model of GBS. The series is classed as in vivo. The protocol:
The effect of the compound of the invention was tested in an animal model of GBS Experimental autoimmune neuritis (EAN) is a T cell mediated, autoimmune disorder of the peripheral nervous system. […] EAN can be induced when animals are injected with myelin from peripheral nerves, or with protein components of the myelin such as Protein 0, in adjuvant. EAN lesions occur in the spinal roots and peripheral nerves and are characterised by perivascular mononuclear cell infiltration, demyelination of axons and nerve conduction deficit.
The compound of the invention was tested in a rat EAN model where disease symptoms were induced by injection of peripheral nerve myelin in adjuvant. […]

A short description of series [9]: Inhibitory activity in blood after oral administration to healthy human volunteers. The series is classed as in vivo.
Series [10] concerns MDA-435 cells. Conditions: study ended day 32. The method, then:
In this model, animals were inoculated with MDA-435 cells (10^6 cells/mouse), the tumours allowed to grow for four days and then the animals were randomised by tumour weight into three treatment groups (n=15 per group). Mini-pumps were surgically implanted on day 5 containing either vehicle or test compound at 15 mg/ml or 60 mg/ml (delivering 180 or 720 µg/mouse/day respectively). The pumps were replaced on day 19 and the study ended on day 32.

Series [11] in a line: Inhibitory activity in blood after oral administration to marmosets. The series is classed as in vivo.
The target of series [12] is stromelysin-1 (Homo sapiens, UniProt P08254). Briefly: biochemical.
Chain of stromelysin-1 (P08254 100-477, species assumed): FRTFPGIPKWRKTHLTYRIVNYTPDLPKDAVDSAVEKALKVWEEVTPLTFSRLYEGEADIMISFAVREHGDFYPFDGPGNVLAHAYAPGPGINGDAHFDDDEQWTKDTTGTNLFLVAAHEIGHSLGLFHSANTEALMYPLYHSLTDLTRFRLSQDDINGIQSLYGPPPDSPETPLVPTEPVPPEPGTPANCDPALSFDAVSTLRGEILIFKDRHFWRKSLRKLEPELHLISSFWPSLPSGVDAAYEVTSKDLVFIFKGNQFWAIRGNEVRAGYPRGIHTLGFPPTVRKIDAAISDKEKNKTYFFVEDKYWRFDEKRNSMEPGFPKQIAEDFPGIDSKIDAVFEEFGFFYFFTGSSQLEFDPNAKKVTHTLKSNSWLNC
Procedure: The potency of the compound of the invention as inhibitors of stromelysin-1 was determined by the procedure of Cawston et al, (Biochem. J., 195, 159-165, 1981), whereby a 1mM solution of the compound being tested, or a dilution thereof, was incubated at 37° for 16 hours with stromelysin and ^14C acetylate casein (buffered with 25mM Hepes, pH 7.5 containing 5mM CaCl2, 0.05% Brij 35 and 0.02% NaN3). The casein was acetylated ^14C casein prepared by the method of Cawston et al (ibid).
Where [13] appears, read: 15mg/ml in osmotic minipump, Compound A as mesylate salt, Compound B as free base.

As for `CC(C)C[C@@H](C(=O)N[C@H](C(=O)Nc1cccnc1)C(C)(C)C)[C@H](O)C(=O)NO` [Compound B, N^1-[2,2-dimethyl-1S-(pyridin-3-ylcarbamoyl)-propyl]-N^4-hydroxy-2R-isobutyl-3S-hydroxy-succinamide], the “plasma exposure from the minipumps” value in [1] is “receiving plasma exposure”. In addition, in series [2] (setting [13]), the signs of tendinitis result is on record as “significant signs from day 8 onwards”. In addition, the “mean scores (tendinitis)” value in series [2] (day 8, 15mg/ml in osmotic minipump) is recorded as over 2; in series [2] (days 15 and 16, 15mg/ml in osmotic minipump) it was “about 6”.

As to `CO[C@H](C(=O)NO)[C@@H](CC(C)C)C(=O)N[C@H](C(=O)Nc1ccccn1)C(C)(C)C` [compound of the invention, N^1-[2,2-Dimethyl-1S-(pyridin-2-ylcarbamoyl)-propyl]-N^4-hydroxy-2R-isobutyl-3S-methoxy-succinamide], the “weight of the compound-treated tumours” value in series [3] (day 18, 360 µg/day via subcutaneous mini-osmotic pump, control 1145 ± 97 mg) is on record as 774 ± 50 mg. In addition, in series [3] (day 18, 360 µg/day, versus vehicle control, p<0.005), the “reduction of tumour weight” value was 32%. For the same molecule, the plasma level in series [3] (end of the study, 360 µg/day via mini-osmotic pump) stood at 26.8 ± 3.2 ng/mL. Moreover, the “plasma exposure from the minipumps” value in series [1] is “receiving plasma exposure”. Besides, the IC50 (commonly the point on the concentration scale where inhibition reaches its midpoint) stood at 10 nM in [4], 70 nM in series [6] and 30 nM in series [12]. Further, the “Blood brain barrier leakage” value in series [5] (day 5 to day 15 after second BCG injection, p<0.05 vs vehicle) stood at 2.042±0.487 mm^2. This molecule yielded a T cell infiltration in [5] (OX-22 positive cells, p<0.0001 vs vehicle) of 341.2±21.9 cells/mm^2. The same molecule returned a Demyelination in series [5] (not statistically significant) of 0.758±0.227 mm^2. The “MHC class II expression” value in series [5] (not statistically significant) amounted to 1.318±0.300 mm^2. The “AUC (0.5 - 24h)” value in series [7] (AUC in number of IC50's x hours) was determined as 674 n IC50's x h; in series [7] (drug plus any active metabolites in blood), 2966 ng/ml x h. Further, the clinical symptoms result in series [8] (given therapeutically day 8-15, 15 or 30 mg/ml at 10 µl/hour, 14 and 28 mg/kg/day) was “reduces clinical symptoms in a dose dependent manner”. The “development of clinical symptoms” value in series [8] (treatment day 1-15, minipumps 15 or 30 mg/ml at 5 µl/hour, 7 and 14 mg/kg/day) is on record as “significantly reduces the development of clinical symptoms in a dose-dependent manner”. The “inhibitory activity in the blood” value in [9] and in series [11] was “significant levels of inhibitory activity have been detected” throughout. In addition, the “inhibition of tumour growth” value is 19% in [10] (180 µg/mouse/day (15 mg/ml mini-pump)) and 33% in series [10] (720 µg/mouse per day (60 mg/ml mini-pump), p<0.005). For the same molecule, the signs of tendinitis entry was “no significant signs of tendinitis” in series [2] (setting [13]) and “no significant signs of tendinitis” in [2] (30mg/ml in osmotic minipump, mesylate salt).
